Laboratory results reported in PubChem BioAssay (NCI).
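Interpolation was linear, between the two tested concentrations surrounding the appropriate level; five concentrations were tested over 48 hours in 96-well plates. TGI: total growth inhibition.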

Legend:
Assay in all cases: growth of human tumour cells (NCI), 48 h
786-0 renal = tested on: 786-0 renal
A498 renal = tested on: A498 renal
A549 NSCLC = tested on: A549 NSCLC
ACHN renal = tested on: ACHN renal
BT-549 breast = tested on: BT-549 breast
CAKI-1 renal = tested on: CAKI-1 renal
CCRF-CEM leukemia = tested on: CCRF-CEM leukemia
COLO 205 colon = tested on: COLO 205 colon
DU-145 prostate = tested on: DU-145 prostate
EKVX NSCLC = tested on: EKVX NSCLC
HCC-2998 colon = tested on: HCC-2998 colon
HCT-116 colon = tested on: HCT-116 colon
HCT-15 colon = tested on: HCT-15 colon
HL-60(TB) leukemia = tested on: HL-60(TB) leukemia
HOP-62 NSCLC = tested on: HOP-62 NSCLC
HOP-92 NSCLC = tested on: HOP-92 NSCLC
HT29 colon = tested on: HT29 colon
IGROV1 ovarian = tested on: IGROV1 ovarian
K-562 leukemia = tested on: K-562 leukemia
KM12 colon = tested on: KM12 colon
LOX IMVI melanoma = tested on: LOX IMVI melanoma
M14 melanoma = tested on: M14 melanoma
MCF7 breast = tested on: MCF7 breast
MDA-MB-231 breast = tested on: MDA-MB-231 breast
MDA-MB-435 = tested on: MDA-MB-435
MDA-N = tested on: MDA-N
MOLT-4 leukemia = tested on: MOLT-4 leukemia
NCI-H226 lung = tested on: NCI-H226 lung
NCI-H23 lung = tested on: NCI-H23 lung
NCI-H460 lung = tested on: NCI-H460 lung
NCI-H522 lung = tested on: NCI-H522 lung
NCI/ADR-RES ovarian = tested on: NCI/ADR-RES ovarian
OVCAR-3 ovarian = tested on: OVCAR-3 ovarian
OVCAR-4 ovarian = tested on: OVCAR-4 ovarian
OVCAR-5 ovarian = tested on: OVCAR-5 ovarian
OVCAR-8 ovarian = tested on: OVCAR-8 ovarian
RXF 393 renal = tested on: RXF 393 renal
SF-268 CNS = tested on: SF-268 CNS
SF-295 CNS = tested on: SF-295 CNS
SF-539 CNS = tested on: SF-539 CNS
SK-MEL-28 melanoma = tested on: SK-MEL-28 melanoma
SK-MEL-5 melanoma = tested on: SK-MEL-5 melanoma
SK-OV-3 ovarian = tested on: SK-OV-3 ovarian
SN12C renal = tested on: SN12C renal
SNB-19 CNS = tested on: SNB-19 CNS
SNB-75 CNS = tested on: SNB-75 CNS
SR leukemia = tested on: SR leukemia
SW-620 colon = tested on: SW-620 colon
TK-10 renal = tested on: TK-10 renal
U251 CNS = tested on: U251 CNS
UACC-257 melanoma = tested on: UACC-257 melanoma
UACC-62 melanoma = tested on: UACC-62 melanoma
UO-31 renal = tested on: UO-31 renal
MALME-3M melanoma = tested on: MALME-3M melanoma
PC-3 prostate = tested on: PC-3 prostate
SK-MEL-2 melanoma = tested on: SK-MEL-2 melanoma

c1ccc2sc(C3(N4CCCC4)CCCCCC3)cc2c1
TGI (786-0 renal): 27.7 µM
TGI (A498 renal): 32.5 µM
TGI (A549 NSCLC): 43 µM
TGI (ACHN renal): 60.7 µM
TGI (BT-549 breast): 51.9 µM
TGI (CAKI-1 renal): 61.2 µM
TGI (CCRF-CEM leukemia): 24.2 µM
TGI (COLO 205 colon): 30.4 µM
TGI (DU-145 prostate): > 100 µM
TGI (EKVX NSCLC): 33 µM
TGI (HCC-2998 colon): 27.1 µM
TGI (HCT-116 colon): 27.7 µM
TGI (HCT-15 colon): 56.5 µM
TGI (HL-60(TB) leukemia): 35.4 µM
TGI (HOP-62 NSCLC): 36.1 µM
TGI (HOP-92 NSCLC): 30 µM
TGI (HT29 colon): 19.3 µM
TGI (IGROV1 ovarian): 46.2 µM
TGI (K-562 leukemia): 38.5 µM
TGI (KM12 colon): 26.3 µM
TGI (LOX IMVI melanoma): 33.2 µM
TGI (M14 melanoma): 31 µM
TGI (MCF7 breast): 33.2 µM
TGI (MDA-MB-231 breast): 31 µM
TGI (MDA-MB-435): 31.7 µM
TGI (MDA-N): 32.1 µM
TGI (MOLT-4 leukemia): 29.3 µM
TGI (NCI-H226 lung): 40.3 µM
TGI (NCI-H23 lung): 40.6 µM
TGI (NCI-H460 lung): 30.1 µM
TGI (NCI-H522 lung): 33.3 µM
TGI (NCI/ADR-RES ovarian): 44.4 µM
TGI (OVCAR-3 ovarian): 27.6 µM
TGI (OVCAR-4 ovarian): 31.8 µM
TGI (OVCAR-5 ovarian): 25.2 µM
TGI (OVCAR-8 ovarian): 37 µM
TGI (RXF 393 renal): 25.7 µM
TGI (SF-268 CNS): 35.9 µM
TGI (SF-295 CNS): 30.4 µM
TGI (SF-539 CNS): 41.2 µM
TGI (SK-MEL-28 melanoma): 37.9 µM
TGI (SK-MEL-5 melanoma): 33.9 µM
TGI (SK-OV-3 ovarian): 35 µM
TGI (SN12C renal): 29.2 µM
TGI (SNB-19 CNS): 29.9 µM
TGI (SNB-75 CNS): 34.5 µM
TGI (SR leukemia): 44.1 µM
TGI (SW-620 colon): 34.4 µM
TGI (TK-10 renal): 45.1 µM
TGI (U251 CNS): 30.9 µM
TGI (UACC-257 melanoma): 31 µM
TGI (UACC-62 melanoma): 31.1 µM
TGI (UO-31 renal): 26 µM

COc1ccc(C2CC(=O)CC(c3ccc(OC)cc3)C23C(=O)NC(=O)NC3=O)cc1 (stereo unspecified)
TGI (786-0 renal): > 100 µM
TGI (ACHN renal): 78.1 µM
TGI (BT-549 breast): > 100 µM
TGI (CAKI-1 renal): 65.3 µM
TGI (CCRF-CEM leukemia): > 100 µM
TGI (COLO 205 colon): 89 µM
TGI (DU-145 prostate): > 100 µM
TGI (EKVX NSCLC): > 100 µM
TGI (HCC-2998 colon): 45.7 µM
TGI (HCT-116 colon): > 100 µM
TGI (HCT-15 colon): > 100 µM
TGI (HL-60(TB) leukemia): 81 µM
TGI (HOP-62 NSCLC): 82.2 µM
TGI (HOP-92 NSCLC): 78.5 µM
TGI (HT29 colon): > 100 µM
TGI (IGROV1 ovarian): 80 µM
TGI (K-562 leukemia): > 100 µM
TGI (KM12 colon): 72.9 µM
TGI (LOX IMVI melanoma): > 100 µM
TGI (M14 melanoma): > 100 µM
TGI (MALME-3M melanoma): 73 µM
TGI (MCF7 breast): > 100 µM
TGI (MDA-MB-231 breast): 85 µM
TGI (MDA-MB-435): 61.6 µM
TGI (MDA-N): 86.4 µM
TGI (MOLT-4 leukemia): 64.8 µM
TGI (NCI-H226 lung): > 100 µM
TGI (NCI-H23 lung): 64.7 µM
TGI (NCI-H460 lung): > 100 µM
TGI (NCI-H522 lung): 60.2 µM
TGI (NCI/ADR-RES ovarian): > 100 µM
TGI (OVCAR-3 ovarian): 44.4 µM
TGI (OVCAR-4 ovarian): > 100 µM
TGI (OVCAR-5 ovarian): > 100 µM
TGI (OVCAR-8 ovarian): > 100 µM
TGI (PC-3 prostate): > 100 µM
TGI (RXF 393 renal): > 100 µM
TGI (SF-268 CNS): > 100 µM
TGI (SF-295 CNS): > 100 µM
TGI (SF-539 CNS): > 100 µM
TGI (SK-MEL-2 melanoma): 46.7 µM
TGI (SK-MEL-28 melanoma): 43.7 µM
TGI (SK-MEL-5 melanoma): 68 µM
TGI (SN12C renal): 97.9 µM
TGI (SNB-19 CNS): > 100 µM
TGI (SNB-75 CNS): 67.1 µM
TGI (SR leukemia): > 100 µM
TGI (SW-620 colon): 50.2 µM
TGI (TK-10 renal): > 100 µM
TGI (U251 CNS): > 100 µM
TGI (UACC-257 melanoma): > 100 µM
TGI (UACC-62 melanoma): > 100 µM
TGI (UO-31 renal): > 100 µM
